± gives the standard deviation of the averaged measurements.
What was measured:
Settings in all cases: treatment time: 3 days
[1] = system: UT-SCC-24A; assay: relative IC50 (midpoint of the fitted curve; maximal inhibition may be below 50%); higher = less potent
Method: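 HNSCC cell lines (500 cells/well, 384-well) were cultured on plastic, on top of (2D) or embedded (3D) in Matrigel or human leiomyoma matrix Myogel (500 ug/mL; Myogel 3D mixed with rat collagen I). Cells were treated for 3 days with 5 ten-fold concentrations of each drug, and viability was read by CellTiter-Glo. Viability was normalised to DMSO (0% inhibition) and 100 uM benzethonium chloride (100% inhibition) controls and fitted with the FIMM DSRT pipeline to give IC50 (nM), maximal % inhibition and the drug sensitivity score (DSS). Suffixes _1/_2/_3 on drug names are replicates.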

[2] = system: UT-SCC-40; assay: maximal % inhibition of viability relative to DMSO; higher = stronger effect
Method: (§1)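 HNSCC cell lines (500 cells/well, 384-well) were cultured on plastic, on top of (2D) or embedded (3D) in Matrigel or human leiomyoma matrix Myogel (500 ug/mL; Myogel 3D mixed with rat collagen I). Cells were treated for 3 days with 5 ten-fold concentrations of each drug, and viability was read by CellTiter-Glo. Viability was normalised to DMSO and benzethonium chloride controls and fitted with the FIMM DSRT pipeline to give IC50 (nM), maximal % inhibition and DSS. Suffixes _1/_2/_3 are replicates. Only inhibition-mode (IC50) fits are kept.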

[3] = system: UT-SCC-42B; assay: as above
Method: as §1

[4] = system: UT-SCC-8; assay: as above
Method: as §1

[5] = system: UT-SCC-73; assay: as above
Method: as §1

[6] = system: UT-SCC-81; assay: as above
Method: as §1

[7] = system: UT-SCC-44; assay: as above
Method: as §1

[8] = system: UT-SCC-24B; assay: as above
Method: as §1

[9] = culture condition: on top of Matrigel
[10] = culture condition: on top of Myogel
[11] = culture condition: plastic 2D (no matrix)
[12] = culture condition: embedded in Matrigel
[13] = culture condition: embedded in Myogel + collagen I

For Cn1cnc2c(F)c(Nc3ccc(Br)cc3F)c(C(=O)NOCCO)cc21 [Binimetinib], the “relative IC50” value [1, 9] was 5.41 nM, the “relative IC50” value [1, 10] was 17.3 nM and the “relative IC50” value [1, 11] was 6.48 nM. The “maximal % inhibition of viability” value [2, 12] was 77.3 ± 2.2%, the “maximal % inhibition of viability” value [2, 13] was 58.1 ± 13% and the “maximal % inhibition of viability” value [2, 9] was 72.4 ± 2%. The “maximal % inhibition of viability” value [2, 10] was 44.7 ± 8.7%, the “maximal % inhibition of viability” value [2, 11] was 52.8 ± 6% and the “maximal % inhibition of viability” value [3, 12] was 66.2 ± 7.5%. For the same compound, the “maximal % inhibition of viability” value [3, 9] was 48.5 ± 15%, the “maximal % inhibition of viability” value [3, 10] was 24.8 ± 7% and the “maximal % inhibition of viability” value [3, 11] was 31.3 ± 8.6%. The “maximal % inhibition of viability” value [4, 12] was 40.9 ± 26%, the “maximal % inhibition of viability” value [4, 13] was 19.8 ± 23% and the “maximal % inhibition of viability” value [4, 9] was 28.9 ± 14%. For the same compound, the “maximal % inhibition of viability” value [4, 10] was 29 ± 15%, the “maximal % inhibition of viability” value [4, 11] was 31 ± 25% and the “maximal % inhibition of viability” value [5, 12] was 80.5 ± 1.5%. The “maximal % inhibition of viability” value [5, 13] was 53.5 ± 17%, the “maximal % inhibition of viability” value [5, 9] was 76.8 ± 1.7% and the “maximal % inhibition of viability” value [5, 10] was 60.7 ± 0.93%. The “maximal % inhibition of viability” value [5, 11] was 66.9 ± 4.2%, the “maximal % inhibition of viability” value [6, 12] was 85.5 ± 1% and the “maximal % inhibition of viability” value [6, 13] was 18.7 ± 4.7%. The “maximal % inhibition of viability” value [6, 9] was 76.3 ± 3.8%, the “maximal % inhibition of viability” value [6, 10] was 23.5 ± 3.9% and the “maximal % inhibition of viability” value [6, 11] was 38.7 ± 2.1%. The “maximal % inhibition of viability” value [7, 12] was 70.1 ± 4.2%, the “maximal % inhibition of viability” value [7, 13] was 31.5 ± 8.1% and the “maximal % inhibition of viability” value [7, 9] was 52.9 ± 11%. The “maximal % inhibition of viability” value [7, 10] was 34 ± 5.1%, the “maximal % inhibition of viability” value [7, 11] was 45 ± 6.7% and the “maximal % inhibition of viability” value [8, 12] was 60.3 ± 0.64%. The “maximal % inhibition of viability” value [8, 13] was 49.6 ± 11%, the “maximal % inhibition of viability” value [8, 9] was 50.7 ± 2.5% and the “maximal % inhibition of viability” value [8, 10] was 28.6 ± 5.1%.

Source: the supplement of paper PMC7017272
